In ChEMBL document CHEMBL1201862, “PubChem BioAssay data set” (2004):
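All cell lines were grown in 96-well plates and treated with compound for 48 hours. Abbreviation: GI50, concentration required for 50% inhibition of growth.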 Calls of active or inactive are those of the source. Cut-off read from the data, not from the text of the source: active = GI50 up to about 1.1 µM and inactive = higher. Starred links: 1 amine or outer side, 2 acyl side, 3 side chain; linkers in the order of their positions; H or OH if unused. Positions of bridges follow the written chain, without caps; N, C: chain ends. Where a SMILES comes first, the peptide text is derived from it. Non-standard residues stand in square brackets, D forms with d. Residues, ends and D or L forms follow the SMILES beside them. [ ]: non-standard residue; d: D form. ξ: configuration not given here. *: point of attachment. γ4hArg(2R,3R-(OH)2) = N=C(N)NCCC[C@H](N[*:1])[C@@H](O)[C@@H](O)C(=O)[*:2]; Gln(3S,4R-Me2) = C[C@H]([C@H](N)C(=O)O)[C@@H](C)C(N)=O; X50 = CC(C)C[C@H](C)[C@@H](O)[C@@H](C)C(=O)*; X51 = COC(c1ccc(O)cc1)C(N[*:1])C(=O)[*:2]; ξThz(5,5-Me2) = CC1(C)SCNC1C(=O)O; NMeQ = CN[C@@H](CCC(N)=O)C(=O)O; Thr(3ξ) = CC(O)[C@H](N)C(=O)O; NMeA = CN[C@@H](C)C(=O)O

Columns and labels:
Experiment in all cases: inhibition of tumour cell growth, NCI panel, 48 h
[1] = tested on: A549
[2] = tested on: ACHN
[3] = tested on: CCRF-CEM
[4] = tested on: HCT-15
[5] = tested on: HL-60
[6] = tested on: KM12
[7] = tested on: M14
[8] = tested on: MCF7
[9] = tested on: MDA-MB-231
[10] = tested on: MDA-MB-435
[11] = tested on: NCI-H460
[12] = tested on: NCI/ADR-RES
[13] = tested on: PC-3
[14] = tested on: RXF 393
[15] = tested on: SK-OV-3
[16] = tested on: SNB-19
[17] = tested on: SNB-75
[18] = tested on: T47D
[19] = tested on: UACC-62
[20] = tested on: LXFL 529

| SMILES | GI50 [1] | GI50 [2] | GI50 [3] | GI50 [4] [µM] | GI50 [5] | GI50 [6] | GI50 [7] | GI50 [8] | GI50 [9] | GI50 [10] | GI50 [11] | GI50 [12] | GI50 [13] | GI50 [14] | GI50 [15] | GI50 [16] | GI50 [17] | GI50 [18] | GI50 [19] | GI50 [20] |
| --- | --- | --- | --- | --- | --- | --- | --- | --- | --- | --- | --- | --- | --- | --- | --- | --- | --- | --- | --- | --- |
| CCOP(=O)(OCC)C(Nc1ccc(F)cc1)c1ccccc1 (centres undefined) | > 100 µM (inactive) | > 100 µM (inactive) | > 100 µM (inactive) | > 100 | 77.4 µM (inactive) | > 100 µM (inactive) | > 100 µM (inactive) | > 100 µM (inactive) | > 100 µM (inactive) | > 100 µM (inactive) | > 100 µM (inactive) | > 100 µM (inactive) | 32 µM (inactive) | > 100 µM (inactive) | > 100 µM (inactive) | > 100 µM (inactive) | > 100 µM (inactive) | 35.1 µM (inactive) | > 100 µM (inactive) | – |
| CN(C)/N=C/c1cn(C)c(=O)n(C)c1=O | > 100 µM (inactive) | > 100 µM (inactive) | > 100 µM (inactive) | > 100 | > 100 µM (inactive) | > 100 µM (inactive) | > 100 µM (inactive) | > 100 µM (inactive) | > 100 µM (inactive) | > 100 µM (inactive) | > 100 µM (inactive) | > 100 µM (inactive) | > 100 µM (inactive) | > 100 µM (inactive) | > 100 µM (inactive) | > 100 µM (inactive) | 35.4 µM (inactive) | > 100 µM (inactive) | > 100 µM (inactive) | – |
| CC1N(C)C(=O)OC12CCN(CCCC(=O)c1ccc(F)cc1)CC2 (centres undefined) | > 100 µM (inactive) | > 100 µM (inactive) | > 100 µM (inactive) | > 100 | > 100 µM (inactive) | > 100 µM (inactive) | > 100 µM (inactive) | > 100 µM (inactive) | > 100 µM (inactive) | > 100 µM (inactive) | > 100 µM (inactive) | > 100 µM (inactive) | > 100 µM (inactive) | > 100 µM (inactive) | > 100 µM (inactive) | > 100 µM (inactive) | > 100 µM (inactive) | > 100 µM (inactive) | > 100 µM (inactive) | – |
| O=C(N/C(=C\c1cccc([N+](=O)[O-])c1)c1nc2ccccc2[nH]1)c1ccccc1 | 35.2 µM (inactive) | 51.4 µM (inactive) | 34.4 µM (inactive) | 26.1 | – | 69 µM (inactive) | 66.8 µM (inactive) | – | – | – | 87.1 µM (inactive) | – | – | – | > 100 µM (inactive) | 61.2 µM (inactive) | 36.4 µM (inactive) | – | 88.1 µM (inactive) | 26.1 µM (inactive) |
| O=C1Nc2ccccc2/C1=N/N1C(=O)/C(=C/c2ccccc2S)N=C1c1ccccc1 | 89.5 µM (inactive) | 92.3 µM (inactive) | 33.3 µM (inactive) | 83 | 40.9 µM (inactive) | 66.4 µM (inactive) | > 100 µM (inactive) | 58.7 µM (inactive) | > 100 µM (inactive) | 42.3 µM (inactive) | 73.6 µM (inactive) | > 100 µM (inactive) | 47.8 µM (inactive) | 68.9 µM (inactive) | > 100 µM (inactive) | > 100 µM (inactive) | > 100 µM (inactive) | 25.5 µM (inactive) | 90.6 µM (inactive) | – |
| COc1ccc(/C(CC2OC(=O)c3ccccc32)=N\NC(N)=O)cc1 (centres undefined) | > 100 µM (inactive) | > 100 µM (inactive) | > 100 µM (inactive) | > 100 | > 100 µM (inactive) | > 100 µM (inactive) | > 100 µM (inactive) | > 100 µM (inactive) | > 100 µM (inactive) | > 100 µM (inactive) | > 100 µM (inactive) | > 100 µM (inactive) | > 100 µM (inactive) | > 100 µM (inactive) | > 100 µM (inactive) | > 100 µM (inactive) | > 100 µM (inactive) | > 100 µM (inactive) | > 100 µM (inactive) | – |
| CC1(CCc2ccccc2)CC1(Br)Br (centres undefined) | 32.9 µM (inactive) | 26.3 µM (inactive) | 23.6 µM (inactive) | 54.8 | 21.5 µM (inactive) | 35.7 µM (inactive) | 44.8 µM (inactive) | 38.8 µM (inactive) | 73.1 µM (inactive) | 25.5 µM (inactive) | 34.1 µM (inactive) | 88.9 µM (inactive) | 40.8 µM (inactive) | 20.7 µM (inactive) | > 100 µM (inactive) | > 100 µM (inactive) | 50.6 µM (inactive) | 27.2 µM (inactive) | 52 µM (inactive) | – |
| O=C(/C(=N\Nc1ccc([N+](=O)[O-])cc1[N+](=O)[O-])NC12CC3CC(CC(C3)C1)C2)C(Br)C(=O)c1ccccc1 (centres undefined) | 3.33 µM (inactive) | 3.18 µM (inactive) | 2.67 µM (inactive) | 4.99 | 2.94 µM (inactive) | 2.78 µM (inactive) | 2.86 µM (inactive) | 3.86 µM (inactive) | 2.27 µM (inactive) | 3.52 µM (inactive) | 3.61 µM (inactive) | 3.23 µM (inactive) | 2.61 µM (inactive) | 2.78 µM (inactive) | 2.75 µM (inactive) | 3.97 µM (inactive) | 2.48 µM (inactive) | 2.69 µM (inactive) | 3.38 µM (inactive) | – |
| O=[N+]([O-])c1cc(Cl)ccc1S(=O)(=O)c1ccccc1 | > 100 µM (inactive) | > 100 µM (inactive) | 29.8 µM (inactive) | 27.6 | 38.9 µM (inactive) | > 100 µM (inactive) | > 100 µM (inactive) | > 100 µM (inactive) | 51.3 µM (inactive) | > 100 µM (inactive) | > 100 µM (inactive) | > 100 µM (inactive) | > 100 µM (inactive) | 54.6 µM (inactive) | > 100 µM (inactive) | > 100 µM (inactive) | 30.8 µM (inactive) | 66.7 µM (inactive) | 53 µM (inactive) | – |
| Nc1cccc(OCC2CCCN3CCCCC23)c1 (centres undefined) | 21.4 µM (inactive) | 18 µM (inactive) | 15.2 µM (inactive) | 17.5 | 20.1 µM (inactive) | 17.6 µM (inactive) | 20 µM (inactive) | 19.5 µM (inactive) | 17.2 µM (inactive) | 22.5 µM (inactive) | 19 µM (inactive) | 19.3 µM (inactive) | 16.9 µM (inactive) | 20.5 µM (inactive) | 72.9 µM (inactive) | 17.9 µM (inactive) | 16.7 µM (inactive) | 17.8 µM (inactive) | 17.1 µM (inactive) | – |
| Cc1nc2c(n1CCCl)C(=O)c1ccccc1C2=O | 33.7 µM (inactive) | 28.9 µM (inactive) | 22.6 µM (inactive) | 7.87 | 16.3 µM (inactive) | 25.3 µM (inactive) | 4.68 µM (inactive) | 18.9 µM (inactive) | 15.4 µM (inactive) | 15.3 µM (inactive) | 14.9 µM (inactive) | 16.2 µM (inactive) | 8.43 µM (inactive) | 19.5 µM (inactive) | 5.22 µM (inactive) | 39.1 µM (inactive) | 14.5 µM (inactive) | > 10 µM (inactive) | 13 µM (inactive) | – |
| Cn1c(=O)c2sc3c4sc5c(=O)n(C)c6ccccc6c5c4sc3c2c2ccccc21 | > 100 µM (inactive) | 48.1 µM (inactive) | > 100 µM (inactive) | > 100 | > 100 µM (inactive) | > 100 µM (inactive) | > 100 µM (inactive) | > 100 µM (inactive) | 31.5 µM (inactive) | > 100 µM (inactive) | > 100 µM (inactive) | > 100 µM (inactive) | > 100 µM (inactive) | 12.6 µM (inactive) | > 100 µM (inactive) | 22.4 µM (inactive) | 42.6 µM (inactive) | > 100 µM (inactive) | > 100 µM (inactive) | – |
| CSCC[C@H](NC(=O)[C@H](CC(C)C)NC(=O)[C@H](Cc1c[nH]cn1)NC(=O)CNC(=O)C1N(C(=O)[C@@H](C)NC(=O)[C@H](Cc2c[nH]c3ccccc23)NC(=O)[C@H](CCC(N)=O)NC(=O)[C@@H](N)CC(N)=O)CSC1(C)C)C(N)=O (some centres undefined) (H-NQW[dA][ξThz(5,5-Me2)]GHLM-NH2) | > 25 µM (inactive) | > 25 µM (inactive) | > 25 µM (inactive) | > 25 | > 25 µM (inactive) | > 25 µM (inactive) | > 25 µM (inactive) | > 25 µM (inactive) | > 25 µM (inactive) | > 25 µM (inactive) | > 25 µM (inactive) | > 25 µM (inactive) | > 25 µM (inactive) | > 25 µM (inactive) | > 25 µM (inactive) | > 25 µM (inactive) | > 25 µM (inactive) | > 25 µM (inactive) | > 25 µM (inactive) | – |
| COC(c1ccc(O)cc1)C1NC(=O)[C@H](CCC(N)=O)N(C)C(=O)[C@H](CC(C)C)NC(=O)[C@@H](CCCN=C(N)N)NC(=O)[C@H](C(C)O)NC(=O)[C@@H](NC(=O)[C@@H](NC(=O)[C@H](O)[C@H](O)[C@H](CCCN=C(N)N)NC(=O)[C@H](C)NC(=O)[C@H](C)[C@H](O)[C@@H](C)CC(C)C)[C@@H](C)[C@@H](C)C(N)=O)[C@@H](C)OC(=O)[C@H](C)N(C)C1=O (stereo partly drawn) (X50-A[γ4hArg(2R,3R-(OH)2)][Gln(3S,4R-Me2)]T[Thr(3ξ)][dR]L[NMeQ][X51][NMeA]; ester 4-C) | 0.141 µM (active) | 0.115 µM (active) | 0.151 µM (active) | 0.133 | 0.167 µM (active) | 0.121 µM (active) | 0.115 µM (active) | 0.14 µM (active) | 0.106 µM (active) | 0.145 µM (active) | 0.0604 µM (active) | 0.222 µM (active) | 0.187 µM (active) | 0.267 µM (active) | 0.189 µM (active) | 0.0929 µM (active) | 0.0902 µM (active) | 0.138 µM (active) | 0.126 µM (active) | – |
